Reference: patent US10118902B2 (Sanford Burnham Prebys Medical Discovery Institute, priority 2014, dated 2018)

Molecular target: neurotensin receptor 1 (NTR1) (Homo sapiens (Human), UniProt P30989)
Assay: NTR1 dose response, high-content imaging beta-arrestin-GFP assay in NTR1-U2OS cells
Format: cell-based
Conditions: read-out: EC50
Text: The cell lines utilized in the high-content imaging assays, which include the NTR1-, NTR2-, and GPR35-U2OS osteosarcomas, were obtained from the laboratory of Dr. Lawrence Barak at the Duke University Medical Center. The media used in the culture of the cell lines, as well as the assays themselves, consisted of Minimum Essential Medium (15-010-CM) and L-glutamine (25-005-CL) from Cellgro/Mediatech (Manassas, Va.), fetal bovine serum (SH30396.03) from Hyclone (Logan, Utah), penicillin-streptomycin solution (PS-20) from Omega Scientific in Tarzana, Calif., G418 (ant-gn-1) from Invivogen (San Diego, Calif.), and zeocin (R250-01) from Invitrogen (Carlsbad, Calif.). Cell lines were cultured in T225 tissue culture flasks (431082) supplied by Corning (Corning, N.Y.). Additional reagents employed include Dulbecco's Phosphate-Buffered Saline (DPBS) (21-031CV) from Cellgro/Mediatech, Trypsin-EDTA 0.05% (25300) from Invitrogen, paraformaldehyde (30528954) from Acros Organics (Geel, Belgium), Hoechst 33342 (H3570) from Invitrogen. The high-content assays were run in 1536-well plates (29326) supplied by Aurora Biotechnology (Poway, Calif.) and utilized aluminum plate seals (T592100) from E&K Scientific (Santa Clara, Calif.). […]
The high-content imaging based NTR1 primary screen in 1536-well format was utilized to assay the MLSMR library of chemical entities in the following manner. On day one, 4 uL of a cell suspension containing 350,000 NTR1-U2OS cells per mL is added to each well of a 1536-well assay plate. Cells are plated in MEM medium containing 2.5% Fetal Bovine Serum, 1% Penicillin/Streptomycin solution, 1% L-Glutamine, 400 ug/mL G418, and 200 ug/mL Zeocin. The assay plates are then incubated overnight at 37° C., under 5% CO2. Following the overnight incubation, a volume of 60 nL of the compounds at 2 mM in DMSO (final 20 μM, 1% DMSO) was transferred to columns 5-48 of the assay plates using a LabCyte Echo Liquid Handler. Next, 60 nL of DMSO were dispensed to columns 1-4, which served as the positive and neutral control wells. […] The assay plates were centrifuged on an Eppendorf 5810 centrifuge at 1000 rpm for 1 min to ensure even liquid levels in the wells of the assay plates. The assay plates were then returned to the incubator for 1 hour. Following the hour-long incubation at 37° C., the cells in each well were fixed with 4 uL of 6% paraformaldehyde added with a Multidrop Combi. The assay plates were centrifuged as before and incubated at room temperature for 1 hour. On the Kalypsys, plates were then aspirated down to 2.5 uL per well and washed twice with 11 uL per well of DPBS, followed by a final aspiration to 2.5 uL per well. On the Combi dispenser, 5 uL of 5 ug/mL Hoechst 33342 diluted in DPBS was added to each well of assay plates. The plates were again centrifuged as previously described, sealed, and incubated for at least 1 hour prior to being loaded on a PerkinElmer Opera QEHS.
Image acquisition was performed with a 45 plate capacity loader/stacker and the following settings: 40×0.6 NA air objective, acquisition camera set to 2-by-2 binning for an image size of 688 by 512 pixels, beta-arrestin-GFP acquired using 488 nm laser excitation and 540/75 nm emission filters, DAPI (nuclei) using 365 nm Xenon lamp excitation and 450/50 nm emission filters, 3 fields per well. Image analysis was performed using the Acapella Spot Detection Algorithm. For analysis settings and the metrics employed in the data analyses, please refer to supplemental information.
Compounds that were successfully confirmed in quadruplicate at 20 uM were then run in dose response in the primary assay. As with the single concentration hit confirmation, the assay was performed in an identical manner as the primary screen with the following modifications. […]

Sequence of neurotensin receptor 1 (NTR1) (P30989 whole entry, species assumed): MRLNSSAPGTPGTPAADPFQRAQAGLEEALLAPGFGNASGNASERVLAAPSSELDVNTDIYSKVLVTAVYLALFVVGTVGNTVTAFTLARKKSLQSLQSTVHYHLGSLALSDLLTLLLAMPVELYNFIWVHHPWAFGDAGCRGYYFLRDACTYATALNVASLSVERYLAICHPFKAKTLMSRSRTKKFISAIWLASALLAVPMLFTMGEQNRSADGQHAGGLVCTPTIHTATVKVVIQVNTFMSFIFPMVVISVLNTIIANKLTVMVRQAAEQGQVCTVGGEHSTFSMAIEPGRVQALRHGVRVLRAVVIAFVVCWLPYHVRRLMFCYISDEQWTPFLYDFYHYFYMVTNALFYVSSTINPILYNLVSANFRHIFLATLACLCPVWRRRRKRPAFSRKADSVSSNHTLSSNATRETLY

Row | EC50 | SMILES
1 | > 10000 nM | COCCN(C)c1ccc2nc(C3CCCC3)nc(N3CCC(c4ccccc4OC)CC3)c2c1 [Example 39, {2-cyclopentyl-4-[4-(2-methoxy-phenyl)-piperidin-1-yl]-quinazolin-6-yl}-(2-methoxy-ethyl)-methyl-amine]
2 | 500 to 2000 nM | COc1ccccc1C1CCN(c2nc(C3(C)CCC3)nc3ccc(N(C)CCN4CCOCC4)cc23)CC1 [Example 69, [4-[4-(2-methoxy-phenyl)-piperidin-1-yl]-2-(1-methyl-cyclobutyl)-quinazolin-6-yl]-methyl-(2-morpholin-4-yl-ethyl)-amine]
3 | > 10000 nM | COc1cccc2c1CCN(c1nc(C3CC3)nc3ccc(N(C)CCO)cc13)CC2 [Example 150, 2-{[2-cyclopropyl-4-(6-methoxy-1,2,4,5-tetrahydro-benzo[d]azepin-3-yl)-quinazolin-6-yl]-methyl-amino}-ethanol]
4 | 500 to 2000 nM | COc1cccnc1N1CCN(c2nc(C3(F)CC3)nc3c(F)cc(N(C)CCO)cc23)CC1 [Example 215, 2-({8-Fluoro-2-(1-fluoro-cyclopropyl)-4-[4-(3-methoxy-pyridin-2-yl)-piperazin-1-yl]-quinazolin-6-yl}-methyl-amino)-ethanol]
5 | 2000 to 10000 nM | COc1ccccc1C1CCN(c2nc(C3(F)CC3)nc3c(Cl)cc(N4CC[C@H](O)C4)cc23)CC1 (stereo in doubt) [Example 203, 1-{8-Chloro-2-(1-fluoro-cyclopropyl)-4-[4-(2-methoxy-phenyl)-piperidin-1-yl]-quinazolin-6-yl}-pyrrolidin-3-ol]
6 | 500 to 2000 nM | CCCN(C)c1cc2c(N3CCC(c4ccccc4OC)CC3)nc(C3CC3)nc2cc1C [Example 122, {2-cyclopropyl-4-[4-(2-methoxy-phenyl)-piperidin-1-yl]-7-methyl-quinazolin-6-yl}-methyl-propyl-amine]
7 | 500 to 2000 nM | COc1ncccc1C1CCN(c2nc(C3(F)CC3)nc3c(F)cc(N(C)CCO)cc23)CC1 [Example 214, 2-{[8-Fluoro-2-(1-fluoro-cyclopropyl)-4-(2-methoxy-3′,4′,5′,6′-tetrahydro-2′H-[3,4′]bipyridinyl-1′-yl)-quinazolin-6-yl]-methyl-amino}-ethanol]
8 | 2000 to 10000 nM | COCCN(C)c1ccc2nc(C3CC3)nc(N3CCC(c4ccccc4N(C)C)CC3)c2c1 [Example 11, {2-cyclopropyl-4-[4-(2-dimethylamino-phenyl)-piperidin-1-yl]-quinazolin-6-yl}-(2-methoxy-ethyl)-methyl-amine]
9 | 500 to 2000 nM | COc1cc(F)ccc1C1CCN(c2nc(C3CC3)nc3cc(F)c(N(C)CCO)cc23)CC1 [Example 110, 2-({2-cyclopropyl-7-fluoro-4-[4-(4-fluoro-2-methoxy-phenyl)-piperidin-1-yl]-quinazolin-6-yl}-methyl-amino)-ethanol]
10 | > 10000 nM | COc1cncnc1C1CCN(c2nc(C3(F)CC3)nc3ccc(N(C)CCO)cc23)CC1 [Example 211, 2-({2-(1-Fluoro-cyclopropyl)-4-[4-(5-methoxy-pyrimidin-4-yl)-piperidin-1-yl]-quinazolin-6-yl}-methyl-amino)-ethanol]
11 | > 10000 nM | CCCN(C)c1ccc2nc(C3(N(C)CCC)CC3)nc(N3CCC(c4ccccc4OC)CC3)c2c1 [Example 21, {4-[4-(2-methoxy-phenyl)-piperidin-1-yl]-2-[1-(methyl-propyl-amino)-cyclopropyl]-quinazolin-6-yl}-methyl-propyl-amine]
12 | 500 to 2000 nM | CN(C)c1ccccc1C1CCN(c2nc(C3(C(F)(F)F)CCCC3)nc3ccc(N(C)CCO)cc23)CC1 [Example 57, 2-{[4-[4-(2-dimethylamino-phenyl)-piperidin-1-yl]-2-(1-trifluoromethyl-cyclopentyl)-quinazolin-6-yl]-methyl-amino}-ethanol]
13 | 2000 to 10000 nM | COc1cccnc1N1CCN(c2nc(C3(F)CC3)nc3ccc(N(C)CCO)cc23)CC1 [Example 209, 2-({2-(1-Fluoro-cyclopropyl)-4-[4-(3-methoxy-pyridin-2-yl)-piperazin-1-yl]-quinazolin-6-yl}-methyl-amino)-ethanol]
14 | 2000 to 10000 nM | COc1ccncc1C1CCN(c2nc(C3(F)CC3)nc3ccc(N(C)CCO)cc23)CC1 [Example 210, 2-{[2-(1-Fluoro-cyclopropyl)-4-(4-methoxy-3′,4′,5′,6′-tetrahydro-2′H-[3,4′]bipyridinyl-1′-yl)-quinazolin-6-yl]-methyl-amino}-ethanol]
15 | > 10000 nM | COc1ccccc1C1CCN(c2nc(C3CC3)nc3ccc(N4CCC(N(C)C)CC4)cc23)CC1 [Example 78, (1-{2-cyclopropyl-4-[4-(2-methoxy-phenyl)-piperidin-1-yl]-quinazolin-6-yl}-piperidin-4-yl)-dimethyl-amine]
16 | 2000 to 10000 nM | COc1ccccc1C1CCN(c2nc(C3(F)CCC3)nc3cnc(N4CC[C@@H](O)C4)cc23)CC1 [Example 199, 1-{2-(1-Fluoro-cyclobutyl)-4-[4-(2-methoxy-phenyl)-piperidin-1-yl]-pyrido[3,4-d]pyrimidin-6-yl}-pyrrolidin-3-ol]
17 | 2000 to 10000 nM | CN(CCO)c1ccc2nc(C3(C)CC3)nc(N3CCC(c4ccccc4N4CCC4)CC3)c2c1 [Example 30, 2-{[4-[4-(2-azetidin-1-yl-phenyl)-piperidin-1-yl]-2-(1-methyl-cyclopropyl)-quinazolin-6-yl]-methyl-amino}-ethanol]
18 | 2000 to 10000 nM | CN(C)c1ccccc1C1CCN(c2nc(C3(C)CCCC3)nc3ccc(N(C)CCN4CCOCC4)cc23)CC1 [Example 54, [4-[4-(2-dimethylamino-phenyl)-piperidin-1-yl]-2-(1-methyl-cyclopentyl)-quinazolin-6-yl]-methyl-(2-morpholin-4-yl-ethyl)-amine]
19 | > 10000 nM | COc1ccccc1C1CCN(c2nc(NC3CCC3)nc3ccc(N(C)CCO)cc23)CC1 [Example 98, 2-((2-(cyclobutylamino)-4-(4-(2-methoxyphenyl)piperidin-1-yl)quinazolin-6-yl)(methyl)amino)ethanol]
20 | 2000 to 10000 nM | COCCN(C)c1ccc2nc(C3(C)CC3)nc(N3CCC(c4ccccc4OC)CC3)c2c1 [Example 33, N-(2-methoxyethyl)-4-(4-(2-methoxyphenyl)piperidin-1-yl)-N-methyl-2-(1-methylcyclopropyl)quinazolin-6-amine]
21 | > 10000 nM | COc1cccc2c1CN(c1nc(C3CC3)nc3ccc(N(C)CCO)cc13)C2 [Example 149, 2-{[2-cyclopropyl-4-(4-methoxy-1,3-dihydro-isoindol-2-yl)-quinazolin-6-yl]-methyl-amino}-ethanol]
22 | > 10000 nM | CN(CCN1CCOCC1)c1ccc2nc(C3(C)CC3)nc(N3CCC(c4ccccc4N4CCC4)CC3)c2c1 [Example 32, [4-[4-(2-azetidin-1-yl-phenyl)-piperidin-1-yl]-2-(1-methyl-cyclopropyl)-quinazolin-6-yl]-methyl-(2-morpholin-4-yl-ethyl)-amine]
23 | 2000 to 10000 nM | CN(C)c1ccccc1C1CCN(c2nc(C3CC3)nc3ccc(N(C)CCN4CCCC4)cc23)CC1 [Example 13, {2-cyclopropyl-4-[4-(2-dimethylamino-phenyl)-piperidin-1-yl]-quinazolin-6-yl}-methyl-(2-pyrrolidin-1-yl-ethyl)-amine]
24 | > 10000 nM | CN(CCO)c1ccc2nc(C3(F)CC3)nc(N3CCC(C4CCCCC4)CC3)c2c1 [Example 139, 2-((4-(4-cyclohexylpiperidin-1-yl)-2-(1-fluorocyclopropyl)quinazolin-6-yl)(methyl)amino)ethanol]
